According to patent publication US20250171457A1, “NITROGEN-CONTAINING HETEROCYCLIC COMPOUND HAVING NRF2 ACTIVATION EFFECT” (CHUGAI SEIYAKU KABUSHIKI KAISHA, priority 2022, published 2025):

System: Nrf2 transcriptional activity (pARE-Luc reporter) in HepG2 cells
Experiment: In vitro Nrf2 transcriptional activity measurement by ARE-dependent reporter assay in HepG2 cell
Format: cell-based, human
Conditions: Homo sapiens; HepG2 cells transfected with pARE-Luc, 4 hours at 37° C.; luciferase activity of Example 1-54 or Example 17-23 at 3.75 μM defined as 100%
Procedure: Test Example 1: In Vitro Nrf2 Transcriptional Activity Measurement by ARE-Dependent Reporter Assay in HepG2 Cell
A human liver cancer-derived cell line HepG2 was transfected with pGL4.37 vector (pARE-Luc, Promega Corp.) and incubated overnight at 37° C. in a humidified atmosphere containing 5% CO2. The cells were dissociated by trypsin treatment, inoculated to a 384-well plate supplemented with a test compound, and incubated at 37° C. for 4 hours. Then, Bright-Glo Reagent (Promega Corp.) was added to the plate, and luciferase activity was measured with Envision plate reader.
Luciferase activity obtained through the action of the compound of Example 1-54 or Example 17-23 at a concentration of 3.75 μM was defined as 100%. The luciferase activity of each well was converted to a response rate (%). The dose-response curve of the compound of each Example was prepared to calculate a 50% effective concentration (EC50).

| Compound | EC50 [nM] |
| --- | --- |
| C[C@H]1COCCN1C1CN(c2cc(Cl)c(C(=O)N3COc4c(cccc4-c4cc(N5C6CCC5COC6)c(C(=O)O)cc4F)C3)c(Cl)c2)C1 [Compound 5-14, 4-[3-[2,6-Dichloro-4-[3-[(3S)-3-methylmorpholin-4-yl]azetidin-1-yl]benzoyl]-2,4-dihydro-1,3-benzoxazin-8-yl]-5-fluoro-2-(3-oxa-8-azabicyclo[3.2.1]octan-8-yl)benzoic acid] | 2.9 |
| O=C(O)c1cc(F)c(-c2cccc3c2OCN(C(=O)c2c(Cl)cc(N4CCN5CCC[C@@H]5C4)cc2Cl)C3)cc1N1C2CCC1COC2 [Compound 4-9, 4-[3-[4-[(8aR)-3,4,6,7,8,8a-Hexahydro-1H-pyrrolo[1,2-a]pyrazin-2-yl]-2,6-dichlorobenzoyl]-2,4-dihydro-1,3-benzoxazin-8-yl]-5-fluoro-2-(3-oxa-8-azabicyclo[3.2.1]octan-8-yl)benzoic acid] | 2.2 |
| CN1CCN(c2cc(Cl)c(C(=O)N3CSc4c(cccc4-c4cc(N5CCOCC5)c(C(=O)O)cc4F)C3)c(Cl)c2)CC1 [Compound 1-68, 4-[3-[2,6-Dichloro-4-(4-methylpiperazin-1-yl)benzoyl]-2,4-dihydro-1,3-benzothiazin-8-yl]-5-fluoro-2-morpholin-4-ylbenzoic acid] | 8.1 |
| CN1CCCN(c2cc(Cl)c(C(=O)N3COc4c(cccc4-c4cc(N5CCOCC5)c(C(=O)O)cc4F)C3)c(Cl)c2)CC1 [Compound 4-22, 4-[3-[2,6-Dichloro-4-(4-methyl-1,4-diazepan-1-yl)benzoyl]-2,4-dihydro-1,3-benzoxazin-8-yl]-5-fluoro-2-morpholin-4-ylbenzoic acid] | 1.8 |
| O=C(O)c1cc(F)c(-c2cccc3c2OCN(C(=O)c2c(Cl)cc(N4CCOC5CC54)cc2Cl)C3)cc1N1C2CCC1COC2 (stereo not drawn) [Compound 1-38, 4-[3-[2,6-Dichloro-4-(2-oxa-5-azabicyclo[4.1.0]heptan-5-yl)benzoyl]-2,4-dihydro-1,3-benzoxazin-8-yl]-5-fluoro-2-(3-oxa-8-azabicyclo[3.2.1]octan-8-yl)benzoic acid] | 1.8 |
| O=C(O)c1cc(F)c(-c2cccc3c2OCN(C(=O)c2c(Cl)cc(OC4CCOC4)cc2Cl)C3)cc1N1C2CCC1COC2 (stereo in doubt) [Compound 4-36, 4-[3-[2,6-Dichloro-4-[(3R)-oxolan-3-yl]oxybenzoyl]-2,4-dihydro-1,3-benzoxazin-8-yl]-5-fluoro-2-(3-oxa-8-azabicyclo[3.2.1]octan-8-yl)benzoic acid] | 8.7 |
| Cn1cc(-c2cc(Cl)c(C(=O)N3Cc4cccc(-c5cc(N6CCOCC6)c(C(=O)O)cc5F)c4NC3=O)c(Cl)c2)cn1 [Compound 18-9, 4-[3-[2,6-Dichloro-4-(1-methylpyrazol-4-yl)benzoyl]-2-oxo-1,4-dihydroquinazolin-8-yl]-5-fluoro-2-morpholin-4-ylbenzoic acid] | 23 |
| Cn1nc2cc(-c3cc(Cl)c(C(=O)N4COc5c(cccc5-c5cc(N6C7CCC6COC7)c(C(=O)O)cc5F)C4)c(Cl)c3)cnc2n1 [Compound 3-20, 4-[3-[2,6-Dichloro-4-(2-methyltriazolo[4,5-b]pyridin-6-yl)benzoyl]-2,4-dihydro-1,3-benzoxazin-8-yl]-5-fluoro-2-(3-oxa-8-azabicyclo[3.2.1]octan-8-yl)benzoic acid] | 9 |
| C[C@@H]1CN(C)CCN1c1cc(Cl)c(C(=O)N2COc3c(cccc3-c3cc(N4C5CCC4COC5)c(-c4nnn[nH]4)cc3F)C2)c(Cl)c1 [Compound 16-4, [2,6-Dichloro-4-[(2R)-2,4-dimethylpiperazin-1-yl]phenyl]-[8-[2-fluoro-5-(3-oxa-8-azabicyclo[3.2.1]octan-8-yl)-4-(1H-tetrazol-5-yl)phenyl]-2,4-dihydro-1,3-benzoxazin-3-yl]methanone] | 110 |
